Source: patent publication US20170258871A1, “COMBINED USE OF A TRKA INHIBITOR AND AN EPHA2 INHIBITOR FOR USING IN THE TREATMENT OF SOLID CANCERS, AND METHOD FOR THE PROGNOSIS OF SURVIVAL OF A PATIENT WHO HAS A SOLID CANCER” (UNIVERSITE DES SCIENCES ET TECHNOLOGIES DE LILLE, priority 2014, published 2017)

Legend:
PC3 cells = assay: In vitro invasion test (Boyden chamber), PC3; format: cell-based
Method: (§1) (0.5 nM) for a period of 20 hours. The untreated cells represent the control and determine a base invasion of 100%.
FIG. 3: A study of the involvement of EphA2 on the pro-invasive effects of proNGF. The invasion test is carried out on cells MDA-MB-231 (A), DU145 (B) and PC3 (C) transfected with a siRNA against EphA2 (siEphA2), TrkA (siTrkA) or a random siRNA (siCTRL). The transfected siCTRL cells are treated to provide a control and determine a base invasion of 100% (white column). […] The efficacy of the siRNA is measured by the western blot method through the use of specific antibodies against TrkA, EphA2, and actin (load control).
The Boyden Chambers (Transwell®; BD Biosciences; France) were recovered from a biological matrix (type 1 collagen from rats diluted to 400 μg·mL-1 in EMEM-0.1% FCS medium; Millipore). The cells were then seeded with 100,000 cells/well on PET membranes (polyethylene terephtalate; dia.: 10.5 mm; porosity: 8 μm) of Boyden Chambers and held in an EMEM-0.1% FCS medium. […] (0.5 nM) in the lower part. […] The number of cells was estimated after staining with Hoechst 33 258 (1 mM; 30 min; 20° C.) by counting the nuclei thereof using fluorescence microscopy on a total of 5 five randomly chosen fields (lens 10×; λ-excitation: 345 nm; λ-emission: 478 nm; Eclipse Ti) using the ImageJ software. […]

CAL33 cells = assay: In vitro invasion test (Boyden chamber), CAL 33; format: cell-based; conditions: NGF 16 nM or proNGF N.C. 0.5 nM, untreated cells = 100%
Method: as §1
(§2) The Boyden Chambers (Transwell®; BD Biosciences; France) were recovered from a biological matrix (type 1 collagen from rats diluted to 400 μg·mL-1 in EMEM-0.1% FCS medium; Millipore). The cells were then seeded with 100,000 cells/well on PET membranes (polyethylene terephtalate; dia.: 10.5 mm; porosity: 8 μm) of Boyden Chambers and held in an EMEM-0.1% FCS medium. […] (0.5 nM) in the lower part. After 20 hours of culture, they were washed twice with PBS 1× and fixed (ice cold methanol; 15 min; −20° C.). The non-invasive cells (upper face of the Transwell®) were eliminated by scraping. The number of cells was estimated after staining with Hoechst 33 258 (1 mM; 30 min; 20° C.) by counting the nuclei thereof using fluorescence microscopy on a total of 5 five randomly chosen fields (lens 10×; λ-excitation: 345 nm; λ-emission: 478 nm; Eclipse Ti) using the ImageJ software. Each experiment was performed in triplicate. Statistical analysis of the results was performed by analysis of variance ANOVA (Bonferroni post-hoc test).

CAL27 cells = assay: In vitro invasion test (Boyden chamber), CAL 27; format: cell-based; conditions: NGF 16 nM or proNGF N.C. 0.5 nM, untreated cells = 100%
Method: as §1, §2

SQ20B cells = assay: In vitro invasion test (Boyden chamber), SQ20B; format: cell-based; conditions: NGF 16 nM or proNGF N.C. 0.5 nM, untreated cells = 100%
Method: as §1, §2

[1] = biological target: T1, TrkA/sortilin/EphA2 complex (Homo sapiens, UniProt Q99523); assay: Immunoprecipitation of the TrkA/sortilin/EphA2 complex in cells MDA-MB-231 HA-TrkA; format: cell-based; conditions: MDA-MB-231 HA-TrkA
T1 construct: expressed in transfected cells
T1 sequence (Q99523 78-831): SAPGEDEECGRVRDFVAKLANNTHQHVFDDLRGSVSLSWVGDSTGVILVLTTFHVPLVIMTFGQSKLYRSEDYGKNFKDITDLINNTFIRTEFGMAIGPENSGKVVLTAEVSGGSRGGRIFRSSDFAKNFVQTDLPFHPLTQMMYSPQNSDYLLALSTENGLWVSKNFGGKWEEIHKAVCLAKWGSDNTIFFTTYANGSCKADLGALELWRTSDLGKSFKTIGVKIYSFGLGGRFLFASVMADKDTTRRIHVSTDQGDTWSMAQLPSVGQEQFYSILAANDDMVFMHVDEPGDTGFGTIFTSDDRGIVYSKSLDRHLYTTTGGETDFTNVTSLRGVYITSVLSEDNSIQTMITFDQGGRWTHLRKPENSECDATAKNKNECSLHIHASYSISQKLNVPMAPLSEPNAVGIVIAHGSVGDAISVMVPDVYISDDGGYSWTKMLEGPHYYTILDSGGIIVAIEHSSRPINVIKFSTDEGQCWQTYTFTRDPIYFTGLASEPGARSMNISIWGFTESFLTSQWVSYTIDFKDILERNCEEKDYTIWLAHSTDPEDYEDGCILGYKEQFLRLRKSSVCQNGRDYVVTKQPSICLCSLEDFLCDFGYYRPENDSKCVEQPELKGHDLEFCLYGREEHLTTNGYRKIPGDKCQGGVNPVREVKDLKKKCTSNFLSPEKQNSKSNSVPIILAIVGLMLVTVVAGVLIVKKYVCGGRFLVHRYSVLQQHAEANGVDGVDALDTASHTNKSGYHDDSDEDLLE
Method: A. Cells MDA-MB-231 HA-TrkA were transfected with siTrkA and then treated with proNGF N.C.
D. Cells MDA-MB-231 HA-TrkA were transfected with siEphA2 and then treated with proNGF N.C. (30 min).
The sequences of siRNA used against EphA2 (siEphA2) at 100 pmol for each transfection, and against TrkA (pool of 3 siTrkA 1, 2 and 3) are given in table 1. The transfections of siRNA are produced by means of [sequence]in™ according to the manufacturers instructions (POL409-10, Polyplus transfection, Ozyme, Saint Quentin en Yvelines, France).
The beads (Protein G-agarose, Millipore) were washed twice (12,000 g; 1 min; 4° C.) and recovered in PBS IX (at 50% (v/v)). The protein samples (1 mg) were pre-clarified (1 h; 4° C.; on a wheel (10 rpm)) with 100 μl of beads and 5 μg of isotypical antibodies (mouse IgG2b), centrifuged (12,000 g; 2 min; 4° C.), then the supernatant was incubated (2 h; 4° C.; on a wheel (10 rpm)) with 5 μg of α-HA 12CA5 antibody (Roche). The beads (100 μL at 50% in PBS IX) were added directly to the antibody/protein complex then incubated (2 h; 4° C.; on a wheel (10 rpm)). The antibody/antigen/bead complexes were then centrifuged (12,000 g; 5 min; 4° C.), washed three times (lysis buffer; 4° C.), then disassociated by addition of Laemmli 2× buffer (25 mM Tris-HCl, 0.8% SDS, 4% glycerol, 1% β-mercaptoethanol, pH 6.8) (7 min; 100° C.). […]

[2] = tested on: MDA-MB-231 HA-TrkA tumours; assay: Xenograft of MDA-MB-231 HA-TrkA in SCID mice, survival (Experiment 2); format: in vivo; conditions: 5 injections (D14-D26), siRNA 7.5 microg/mouse close to the tumour; control 40 days; log-rank P=0.0022
Method: FIG. 9: A study of the inhibition of TrkA and EphA2 on tumour development in vivo. […] The experiments were stopped 31 days after the first injection of the treatment for ethical considerations after the death of the control mice. A) The tumour volumes were evaluated by measuring the length (;) and the width (w) and then calculating the volume using the formula π/6×l×W×(l+w)/2; the Mann and Whitney test was carried out between the control group and CEP-701 (a), between the control groups and siEphA2 (b), between the control groups and CEP-701+siEphA2 (c), and between the groups siEphA2 and CEP-701+siEphA2 (d)*, P<0.05; **, P<0.01; ns: not significant. B) Study of the inhibition of the expression of receptors by siRNA on the overall survival of SCID mice. The tumours were developed without any intervention for 14 days and were then subjected to 5 injections (D14, DI7, D20, D23, D26) of SiTrkA (7.5 microg/mouse), siEphA2 (7.5 microg/mouse), siTrkA (7.5 microg/mouse) and siEphA2 (7.5 microg/mouse). […] The tumour volumes were evaluated by measuring the length (l) and width (w) and then calculating the volume using the formula π/6×l×W×(l+w)/2. […] Significance was measured using the log-rank test (P=0.0022). […]
Experiment 2: The mice used were six-week old SCID females. […] The tumour volume was measured according to the following formula: π/6×length×width×(width+length)/2. […]

Substance | cell invasion under growth factor (PC3 cells; NGF 16 nM or proNGF N.C. 0.5 nM, untreated cells = 100%) | cell invasion under growth factor (CAL33 cells) | cell invasion under growth factor (CAL27 cells) | cell invasion under growth factor (SQ20B cells) | association of TrkA, sortilin and EphA2 (co-immunoprecipitation) under ligand treatment ([1]; 0.5 nM proNGF N.C. or 16 nM NGF, 5 and 30 min) | invasion induced by proNGF in siRNA-transfected cells (PC3 cells; siRNA transfection vs siCTRL, proNGF) | formation of the TrkA/sortilin/EphA2 complex under proNGF with invalidation of a receptor ([1]; proNGF N.C., siRNA transfection or 1 μM neurotensin) | median survival [2] [days]
NGF: Nerve Growth Factor; recombinant human β NGF supplied by Scil Proteins | increased cell invasion | increased cell invasion | did not respond | induced | induce a delayed association of TrkA and sortilin but does not induce bonding with EphA2 | – | – | –
siEphA2: siRNA against EphA2, GCAAGGAAGUGGUACUGCUGGACUU (SEQ ID NO: 1) (listed as RNA, chemistry not given here) | – | – | – | – | – | abolished the invasion induced by proNGF | no bond was observed between EphA2 and TrkA | 49
